From patent US9579322B2, “Methods for treating neurologic disorders” (EIP Pharma, LLC, priority 2014, dated 2017)

Tests used:
knee degeneration = conditions: rats, 50 mg/kg, compared to control animals; cited from earlier work
amyloid plaque load = assay: 2-week pilot study in aged Tg2576 mice; format: in vivo; conditions: 26 month old Tg2576 mice, 2 weeks, versus control animals
[1] = tested on: cytokine (IL-1β or TNFα) production in whole blood; conditions: inhibition of cytokine production (anti-inflammatory activity); cited from earlier work
[2] = tested on: IL-1β signaling and IL-1β production; assay: Inhibition of IL-1beta signaling versus IL-1beta production; format: cell-based, human; conditions: for potency for inhibition of cytokine (IL-1beta) signaling relative to inhibition of cytokine production: signaling versus production
[3] = tested on: rheumatoid arthritis (RA); conditions: cited from earlier work
IL-1β = IL-1β ELISA of hippocampus extracts; format: in vivo, Fischer rats
Description: (§1) The primary objective of this study was to investigate whether pre-treatment with compound VX-745 alleviates cognitive defects in aged rats. Plasma concentration of VX-745 was determined with LC-MS/MS at the end of the study from samples collected 1 hour post dosing. In addition, protein levels of PSD95 in ventral cortex and hippocampus, and levels of IL-1β in the hippocampus were analyzed by specific ELISA assays to evaluate the potential anti-inflammatory effects of VX-745 in the brain
One hour after the last vehicle or VX-745 morning dosing, the animals (10 per dosing group) were deeply anesthetized with pentobarbital and blood samples were collected by cardiac puncture. 500 μl of blood was collected into EDTA microtubes, centrifuged, and plasma collected. The brains were perfused with heparinized saline, and the brains were collected. Right hemisphere was post-fixed by immersion in 4% PFA in 0.1 M PB for 24 h. After a brief wash with phosphate buffer, the hemisphere was cryoprotected in 30% sucrose in PB for 2-3 days, after which it was frozen on liquid nitrogen and stored at −80° C. for optional future immunohistochemical analysis. […]
Cortex and hippocampal soluble extracts were analyzed for PSD95 content using an ELISA kit (Cusabio Biotech Ltd., #CSB-EL006938RA, Lot 031154387), while the levels of Il-1β were analyzed only from hippocampus (R&D Systems, #RLB00, Lot 308544).

hyperalgesic response = conditions: cited from earlier work
[4] = Plasma concentration by LC-MS/MS 1 hour post dosing; format: in vivo, Fischer rats
Description: as §1
One hour after the last vehicle or VX-745 morning dosing, the animals (10 per dosing group) were deeply anesthetized with pentobarbital and blood samples were collected by cardiac puncture. 500 μl of blood was collected into EDTA microtubes, centrifuged, and plasma collected. The brains were perfused with heparinized saline, and the brains were collected. Right hemisphere was post-fixed by immersion in 4% PFA in 0.1 M PB for 24 h. After a brief wash with phosphate buffer, the hemisphere was cryoprotected in 30% sucrose in PB for 2-3 days, after which it was frozen on liquid nitrogen and stored at −80° C. for optional future immunohistochemical analysis. Left hemisphere was dissected to ventral and dorsal cortex, hippocampus and remaining brain fraction and fresh frozen on dry ice.
Plasma samples were processed using acetonitrile precipitation and then analyzed for VX745 drug concentration by LC-MS/MS

[5] = animals; cited from earlier work
paw swelling = conditions: 10 mg/kg, reference compound in arthritis model; cited from earlier work
[6] = 250 mg b.i.d, phase 2 clinical, RA patients

Question: With VX-745 as the substance, how does the “inhibition of knee degeneration” value (knee degeneration) read?
Answer: statistically significant inhibition of knee degeneration

Question: What about the amyloid plaque load (amyloid plaque load) of the same substance?
Answer: lower amyloid plaque load than control animals

Question: What about the “whole blood IC50” value [1] of the same substance?
Answer: 0.065 to 0.08 µg/mL

Question: What about the “IC50 for inhibition of IL-1β signaling relative to IC50 for inhibition of IL-1β production” value ([2]; human systems, prior, previously undisclosed studies) of the same substance?
Answer: approximately half

Question: And the “potency for inhibition of cytokine (IL-1beta) signaling relative to inhibition of cytokine production” value [2]?
Answer: approximately twice

Question: And the “potency for inhibition of cytokine (IL-1beta) signaling relative to inhibition of cytokine production” value ([2]; listed as VX745)?
Answer: two-fold higher

Question: And the “adverse events in patients” value [3, 6]?
Answer: adverse events, including gastrointestinal effects such as diarrhea and abdominal pain, and elevations in liver transaminases

Question: What about the “inflammatory markers and clinical improvement” value [3, 6] of the same substance?
Answer: significant reduction in inflammatory markers and clinical improvement

Question: What about the “mean plasma drug concentrations” value ([3]; 250 mg b.i.d, phase 2 clinical) of the same substance?
Answer: approximately 75 ng/m

Question: What about the “adverse neurological effects in humans” value ([3]; humans) of the same substance?
Answer: not observed

Question: And the “mean blood concentration in the treatment of rheumatoid arthritis” value ([3]; treatment of rheumatoid arthritis)?
Answer: approximately 75 ng/mL

Question: And the “IL-1β levels in the hippocampus” value (IL-1β; 1.5 mg/kg)?
Answer: no evident effects

Question: What about the “IL-1β levels in the hippocampus” value (IL-1β; 4.5 mg/kg, p=0.038 Mann-Whitney, similar to young rats) of the same substance?
Answer: lower relative to the aged vehicle-treated group

Question: And the “effect on hyperalgesia at the 3 mg/kg dose” value (hyperalgesic response; 3 mg/kg)?
Answer: minimal effect

Question: What about the “inhibition of hyperalgesic response” value (hyperalgesic response; rats, 30 mg/kg, 10 mg/kg and 3 mg/kg) of the same substance?
Answer: significant inhibition of hyperalgesic response

Question: What about the “plasma drug concentration relative to concentrations needed for IL-1β inhibition” value ([4]; 1.5 mg/kg) of the same substance?
Answer: reached drug concentrations required for blocking IL-1β signaling

Question: What about the “plasma drug concentration relative to concentrations needed for IL-1β inhibition” value ([4]; 4.5 mg/kg) of the same substance?
Answer: reached concentrations exceeding whole blood IC50 for IL-1β production

Question: What about the “plasma drug levels one hour after last dose” value ([4]; 0.5, 1.5 and 4.5 mg/kg p.o. BID, aged rats) of the same substance?
Answer: increased in a dose proportional manner

Question: And the “neurological effects at very high doses” value [5]?
Answer: adverse neurological effects

Question: And the “inhibition of paw swelling” value (paw swelling)?
Answer: not as effective at inhibiting paw swelling as other compounds assayed
